# Laboratory results: patent US20220273678A1 (priority 2020, published 2022)
# pIC50: −log10 of the molar value. Entries after “also recorded” stand apart in the source; their conditions may differ. Read-outs that look alike come from different tables or passages of the source.
# Assays:
# [1] = cited from earlier work
# icSARS-CoV-2-mNG = assay type: cell-based, SARS-CoV-2
# SARS-CoV-2 [2] = test: microbe, parasite or virus in culture; assay type: cell-based
# SARS-CoV-2 [3] = test: K18-hACE2 mice infected with SARS-CoV-2 (wild type), lung viral titer and viral protein; assay type: in vivo
# Nrf2, Keap1, HO-1 = test: Nrf2, Keap1 and HO-1 protein levels in Calu3 cells, flow cytometry; assay type: cell-based, human; details: infected and uninfected Calu3
# IFN-β, IFN-λ = assay type: cell-based, human; details: infected Calu3, 48 hpi, Mito-MES 100-1000 nM; methanesulfonate
# Vero cells = test: XTT cell cytotoxicity assay in uninfected Vero cells; assay type: cell-based, African green monkey; details: uninfected cultures, 10-1000 nM
# Description: To measure cell viability to determine if there was any treatment-induced cytotoxicity, cells were plated and treated with drugs as described above. Cells were exposed to the same dilution series created for the in vitro efficacy studies. As above, vehicle-treated cells served as the 0% cytotoxicity control. After 24 h, cell viability was measured on a Synergy 2 Biotek microplate reader (Biotek Inc) via the XTT Cell Proliferation Assay Kit (ATCC® 30-1011K™) according to the manufacturer's protocol. Similar data were obtained in three independent experiments.
# [4] = mice, doses as high as 230 mg/kg/day; cited from earlier work
# IL-6, IL-10 = assay type: cell-based, human
# [5] = up to 80 mg orally daily, up to one year; methanesulfonate; cited from earlier work
# IL-6 = assay type: cell-based, African green monkey; details: Mito-MES 10-1000 nM, 4F 10 μM
# [6] = system: IL-6, IL-1β, IL-8, IL-10, TNF-α; assay type: cell-based, human
# SARS-CoV-2 [7] = test: SARS-CoV-2 replication in human airway epithelial (HAE) air-liquid interface cultures, flow cytometry; assay type: cell-based
# MAVS, TOM70, STING, MX1 = test: MAVS, TOM70, STING and MX1 protein levels in Calu3 cells, flow cytometry and immunofluorescence; assay type: cell-based, human
# [8] = system: ACE2, CD147, NRP1 and TMPRSS2; test: Host entry factor protein levels in Calu3 cells, flow cytometry; assay type: cell-based, human; details: methanesulfonate
# [9] = system: SARS-CoV-2 wild type (WT); test: Lung inflammation in K18-hACE2 mice infected with SARS-CoV-2 wild type (cohort A, 3 dpi); assay type: in vivo
# SARS-CoV-2 [10] = test: SARS-CoV-2 replication in HEK293T-hACE2 cells, flow cytometry; assay type: cell-based; details: 100 nM Mito-MES; methanesulfonate
# [11] = system: murine coronavirus hepatitis virus A-59 (MHV-A59); test: Mouse hepatitis virus A-59 in 17Cl-1 fibroblast cells; assay type: cell-based; details: mouse 17C1-1 fibroblast cells, 1000 nM
# [12] = cited from earlier work; remark: listed apart in the source
# SARS-CoV-2 [13] = assay type: cell-based
smiles,measurement,setting,value
"COC1=C(OC)C(=O)C(CCCCCCCCCC[P+](c2ccccc2)(c2ccccc2)c2ccccc2)=C(C)C1=O.CS(=O)(=O)[O-] [Mito-MES, 10-(4,5-dimethoxy-2-methyl-3,6-dioxo-1,4-cyclohexadienyl) decyl triphenylphosphonium methanesulfonate]",elimination half-life,[1]; based on post 4 h data,about 14 h
same,lung tissue penetration,"[1]; mice, 4 mg/kg/day",good lung tissue penetration
same,accumulation in tissues including liver and kidney,"[1]; mice, >10 days of oral supplementation",50 to 700 pmol/g (wet weight)
same,time of peak plasma concentration,[1]; oral administration,≤ 1 h
same,antiviral activity against fluorescent SARS-CoV-2,icSARS-CoV-2-mNG,potent and similar antiviral activity
same,"reduction of release of progeny virus, TCID50 analysis of cell supernatants","SARS-CoV-2 [2]; Calu3, 100 nM and 1000 nM Mito-MES",> 2 logs
same,"nucleocapsid protein expression, time-of-addition","SARS-CoV-2 [2]; Calu3, 1000 nM Mito-MES",inhibited nucleocapsid protein expression in Calu3 cells when added before infection (effect on viral entry) but also even when added 4 hours after infection
same,antiviral activity by immunofluorescence and PCR,"SARS-CoV-2 [2]; Calu3, 10-1000 nM, methanesulfonate",much more potent in Calu3 cells compared to Vero E6 cells; also recorded: potent antiviral activity against SARS-CoV-2 in Calu3 cells at concentrations as low as 10 nM
same,Viral replication by flow cytometry at 48 hpi in Calu3 cells,"SARS-CoV-2 [2]; DMF 10 μM, Mito-MES 100 nM, Mito-MES 100 nM+DMF 10 μM, […]",2.4%
same,Viral replication by flow cytometry at 48 hpi in Calu3 cells,"SARS-CoV-2 [2]; Mito-MES 1000 nM, Brusatol 250 nM, Mito-MES 1000 nM+Brusatol 250 nM",2.9%
same,pIC50,"SARS-CoV-2 [2]; Severe acute respiratory syndrome coronavirus 2, Calu-3, 48 h, read-out: IC50 (FIG. 1-i)",7.70
same,pIC50,"SARS-CoV-2 [2]; Severe acute respiratory syndrome coronavirus 2, Calu-3, 72 h, read-out: IC50, % inhibition of viral replication (FIG. 5-c)",7.52
same,"viral titers of infected cells vs vehicle control, TCID50-assay","SARS-CoV-2 [2]; […], 10 nM Mito-MES, 10 μM DMF, 100 nM 4F, alone or combined as labelled",reduced viral titers
same,lowest concentration that resulted in an observable antiviral effect,SARS-CoV-2 [2]; human lung epithelial cells,10 nM
same,reduction in SARS-CoV-2 viral titers in the lungs relative to vehicle,"SARS-CoV-2 [3]; 4 mg/kg i.p. from 24 hours before infection, once per day",~2 log units
same,reduction in SARS-CoV-2 viral titers in the lungs relative to vehicle,"SARS-CoV-2 [3]; 4 mg/kg, 8 hours after infection",1.5 log units
same,"SARS-CoV-2 N protein among lung cell subtypes, flow cytometry",SARS-CoV-2 [3]; 3 dpi,had anti-SARS-CoV-2 activity in EPCAM(+) lung epithelial cells
same,viral titers compared to controls (vehicle),"SARS-CoV-2 [3]; K18-hACE2 mice, 4 mg/kg per day intraperitoneally, 72 hpi",viral titers were lower
same,reduction of the replication of SARS-CoV-2,"SARS-CoV-2 [3]; K18-hACE2 mice, overall",at least 2 orders of magnitude
same,protein levels of Nrf2,"Nrf2, Keap1, HO-1",did not impact protein levels of Nrf2
same,protein levels of Keap (Keap1),"Nrf2, Keap1, HO-1; methanesulfonate","reduced protein levels of the endogenous Nrf2 inhibitor, Keap1; also recorded: reduced protein levels of Keap"
same,secreted and cellular IFN-β and IFN-λ,"IFN-β, IFN-λ",did not impact increase in secreted and cellular IFN-β
same,"cytotoxicity, XTT cell cytotoxicity assay",Vero cells,no observed cytotoxicity
same,mutagenicity and toxicity,[4],non-mutagenic and non-toxic
same,secretion / release of IL-6,"IL-6, IL-10",attenuated SARS-CoV-2-induced increase in secretion of IL-6
same,secretion of IL-10,"IL-6, IL-10",reduced secretion of IL-10
same,safety in humans,[5],safety for up to one year in doses as high as 80 mg orally daily has been validated; also recorded: without any serious adverse events
same,SARS-CoV-2-induced secretion of IL-6,IL-6,attenuated the increase in secretion of IL-6
same,"secretion of IL-10, Luminex",[6],tended (p=0.09) to reduce the secretion of IL-10
same,Viral replication by flow cytometry in human airway epithelial cells,"SARS-CoV-2 [7]; 1 μM Mito-MES, Control 20.0%, MOI 0.1",0.4%
same,"percent of SARS-CoV-2 infected human lung epithelial cells, flow cytometry","SARS-CoV-2 [7]; HAE ALI cultures, 100 nM Mito-MES",significantly reduced the percent of SARS-CoV-2 infected human lung epithelial cells
same,"percent of SARS-CoV-2 infected FOXJ1+ ciliated epithelial cells, flow cytometry","SARS-CoV-2 [7]; HAE ALI cultures, methanesulfonate",significantly reduced the percent of human FOXJ1 (forkhead box J1) positive ciliated epithelial cells infected with SARS-CoV-2
same,MX1 protein levels,"MAVS, TOM70, STING, MX1; Calu3, flow cytometry, 4F 10 μM",increased MX1 protein levels
same,STING protein levels,"MAVS, TOM70, STING, MX1; infected Calu3, flow cytometry, methanesulfonate",did not impact stimulator of interferon genes (STING)
same,"TOM70 protein levels, immunofluorescence","MAVS, TOM70, STING, MX1; infected Calu3 vs vehicle, methanesulfonate",confirmed by immunofluorescence; also recorded: dose-dependent increase in TOM70 protein levels
same,MAVS protein levels,"MAVS, TOM70, STING, MX1; total and infected Calu3, flow cytometry, methanesulfonate",no impact; also recorded: did not modulate MAVS protein levels
same,"TOM70 protein levels, flow cytometry","MAVS, TOM70, STING, MX1; total and infected Calu3, methanesulfonate",increased the translocase of the outer membrane 70 (TOM70) protein levels
same,"protein levels of ACE2, TMPRSS2, NRP1 and CD147",[8],did not impact; also recorded: Neither SARS-CoV-2 infection nor Mito-MES significantly modulates protein levels
same,"reduction in IL-6 in the lungs, Luminex","[9]; 4 mg/kg i.p. daily, 3 dpi",at least 2 orders of magnitude
same,"reduction in IL-lb in the lungs, Luminex","[9]; 4 mg/kg i.p. daily, 3 dpi",at least 2 orders of magnitude
same,"frequency of CD45+ immune cells in lungs, flow cytometry",[9]; 3 dpi,reduced frequency of CD45+ immune
same,frequency of NK cells in lungs,[9]; 3 dpi,reduced frequency of NK cells
same,levels of TNFa,[9]; WT SARS-CoV-2,did not change
same,protein levels of IL-18,[9]; cohort A and cohort B,did not change protein levels of IL-18
same,"frequency of neutrophils, macrophages, myeloid DCs, lymphoid DCs, T cells, B cells","[9]; lungs, flow cytometry",did not alter frequency
same,"percent of SARS-CoV-2 infected HEK293T-hACE2 cells, flow cytometry",SARS-CoV-2 [10],significantly reduced the percent of SARS-CoV-2 infected human non-cancerous HEK293T epithelial cells
same,anti-MHV-A59 activity,[11],anti-MHV-A59 activity
same,average elevation of fasting plasma concentrations,"[12]; 40-80 mg/day, after about 10 days",about 5 ng/mL
same,plasma concentration after 24 h,"[12]; humans, single 40 mg oral dose",about 2 ng/ml
same,maximal plasma concentration,"[12]; humans, single 80 mg oral dose",33 ng/mL
same,time of maximal plasma concentration,"[12]; humans, single 80 mg oral dose",about 1 h
same,"release of progeny SARS-CoV-2 virus particles to the cell supernatant, TCID50 assay",SARS-CoV-2 [13],reduction in subsequent release of progeny SARS-CoV-2 virus particles
same,"IC50 against SARS-CoV-2 compared to remdesivir, TCID50 assay",SARS-CoV-2 [13]; Vero E6,three orders of magnitude lower
same,"percent of cells positive for SARS-CoV-2 N and Spike S proteins, flow cytometry","SARS-CoV-2 [13]; Vero cells, methanesulfonate",reduced the percent of cells that were positive for SARS-CoV-2 N and Spike S proteins; also recorded: reduced the percent of infected cells that were positive for N protein
same,antiviral activity by immunofluorescence and qPCR,SARS-CoV-2 [13]; methanesulfonate,confirmed by immunofluorescence (IF) detection of SARS-CoV-2 and by qPCR; also recorded: modest antiviral activity
